The text below walks through data of ChEMBL document CHEMBL4028823, “Pharmacological property optimization for allosteric ligands: A medicinal chemistry perspective” (Bioorg Med Chem Lett, 2017).

Structures are written as SMILES.

Assay [1] addresses Metabotropic glutamate receptor 5 (Homo sapiens) (UniProt P41594). Put plainly: Negative allosteric modulation of mGlu5 receptor (unknown origin) expressed in HEK293A cells assessed as inhibition of glutamate induced-calcium mobilization by Fluo-4 AM dye based fluorescence assay. It counts as functional, cell-based. A general note: A change in cytosolic calcium serves as a functional read-out for many receptors and channels.

The target of assay [2] is T1, Tyrosine-protein kinase BTK (Homo sapiens, UniProt Q06187). Kind of assay: Ratio of Kinact to ki for recombinant full length BTK (unknown origin).
T1 sequence (Q06187 whole entry): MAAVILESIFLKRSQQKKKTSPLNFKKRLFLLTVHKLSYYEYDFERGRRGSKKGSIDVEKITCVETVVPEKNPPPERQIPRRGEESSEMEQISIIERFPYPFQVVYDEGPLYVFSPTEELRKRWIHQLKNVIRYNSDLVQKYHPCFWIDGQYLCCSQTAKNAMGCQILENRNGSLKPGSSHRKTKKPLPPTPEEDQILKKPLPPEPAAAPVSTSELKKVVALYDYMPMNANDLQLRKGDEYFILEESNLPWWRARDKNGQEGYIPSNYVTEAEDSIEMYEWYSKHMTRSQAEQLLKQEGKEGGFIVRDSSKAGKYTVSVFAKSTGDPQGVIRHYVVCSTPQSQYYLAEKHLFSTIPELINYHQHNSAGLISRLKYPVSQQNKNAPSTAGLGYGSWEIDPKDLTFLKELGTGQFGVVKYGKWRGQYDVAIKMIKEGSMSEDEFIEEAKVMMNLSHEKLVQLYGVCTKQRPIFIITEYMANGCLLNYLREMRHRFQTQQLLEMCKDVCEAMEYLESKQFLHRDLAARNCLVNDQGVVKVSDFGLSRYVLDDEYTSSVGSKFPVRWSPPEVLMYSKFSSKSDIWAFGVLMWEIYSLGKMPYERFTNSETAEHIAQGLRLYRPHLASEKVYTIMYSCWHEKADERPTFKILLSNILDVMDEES
Assay [3] has as its target T1, Tyrosine-protein kinase BTK. Kind of assay: Binding affinity to recombinant full length BTK (unknown origin) assessed as residence time by fluorescent tracer based TR-FRET assay. A general note: TR-FRET usually uses a lanthanide donor and a delayed reading to cut background.
Assay [4] addresses D(2) dopamine receptor (Homo sapiens) (UniProt P14416).
Description: Agonist activity at D2 long receptor (unknown origin) expressed in Flp-In-CHO cells assessed as change in transduction coefficient by measuring cellular impedance measured immediately at 15 secs interval for 90 mins by xCELLigence assay
For assay [5] the target is unchanged. The source holds these as a separate data set.
Description: Agonist activity at D2 long receptor (unknown origin) expressed in Flp-In-CHO cells co-expressing Rluc8-tagged GalphaoB assessed as change in transduction coefficient by measuring GalphaoB activation in presence of coelenterazine by BRET assay
The target is the same in assay [6]. This is another data set of the same source.
Description: Agonist activity at D2 long receptor (unknown origin) expressed in Flp-In-CHO cells assessed as change in transduction coefficient by measuring inhibition of forskolin-induced cAMP production measured after 5 mins in presence of coelenterazine by BRET assay
The target is the same in assay [7]. The source holds these as a separate data set.
Description: Agonist activity at D2 long receptor (unknown origin) expressed in Flp-In-CHO cells assessed as change in transduction coefficient by measuring induction of ERK1/2 phosphorylation after 5 mins by Alphascreen assay
Assay [8] has the same target. This is another data set of the same source.
Description: Displacement of [3H]spiperone from D2 long receptor (unknown origin) expressed in Flp-In-CHO cell membranes assessed as transduction coefficient by measuring dissociation half life after 5 mins by liquid scintillation counter method
Assay [9] deals with T2, Glycine receptor subunit alpha-1 (Homo sapiens, UniProt P23415).
T2 sequence (P23415 whole entry): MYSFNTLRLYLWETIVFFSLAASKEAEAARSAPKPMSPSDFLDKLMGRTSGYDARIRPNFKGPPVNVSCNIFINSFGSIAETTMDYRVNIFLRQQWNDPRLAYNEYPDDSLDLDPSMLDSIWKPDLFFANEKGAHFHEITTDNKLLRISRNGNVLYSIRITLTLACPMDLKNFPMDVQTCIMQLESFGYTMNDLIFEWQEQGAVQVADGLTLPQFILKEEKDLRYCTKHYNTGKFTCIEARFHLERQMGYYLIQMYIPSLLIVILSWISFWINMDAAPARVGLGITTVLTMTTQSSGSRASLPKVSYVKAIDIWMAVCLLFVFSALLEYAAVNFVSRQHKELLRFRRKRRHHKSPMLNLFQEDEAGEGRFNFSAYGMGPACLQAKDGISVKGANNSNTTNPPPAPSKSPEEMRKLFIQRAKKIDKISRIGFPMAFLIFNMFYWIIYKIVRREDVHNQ
Kind of assay: Positive allosteric modulatory activity at recombinant human glycine alpha1 receptor expressed in HEK293 cells assessed as potentiation of glycine-induced response at -50 mV holding potential in presence of fructose by whole cell patch clamp method. In kind it is cell-based.

In assay [10] the target is T3, Muscarinic acetylcholine receptor M1 (Homo sapiens) (UniProt P11229).
T3 sequence (whole entry): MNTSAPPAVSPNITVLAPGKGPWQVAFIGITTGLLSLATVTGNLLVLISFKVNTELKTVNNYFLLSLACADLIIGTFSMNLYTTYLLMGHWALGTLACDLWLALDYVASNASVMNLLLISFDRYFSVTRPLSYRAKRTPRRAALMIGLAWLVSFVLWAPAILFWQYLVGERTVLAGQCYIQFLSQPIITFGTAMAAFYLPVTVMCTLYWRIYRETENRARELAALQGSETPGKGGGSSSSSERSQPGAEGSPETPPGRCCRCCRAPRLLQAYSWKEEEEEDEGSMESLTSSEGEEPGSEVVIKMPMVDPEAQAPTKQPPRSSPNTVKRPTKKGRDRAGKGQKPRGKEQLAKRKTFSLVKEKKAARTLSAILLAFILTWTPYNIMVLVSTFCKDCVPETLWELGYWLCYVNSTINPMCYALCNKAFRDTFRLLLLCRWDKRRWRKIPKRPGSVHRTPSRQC
Kind of assay: Displacement of [3H]NMS from recombinant human mAChR1 expressed in CHO cells. It counts as cell-based. (Displacement assays read how much labelled ligand stays bound in the presence of the test substance.)

The target in assay [11] is T3, Muscarinic acetylcholine receptor M1 (Homo sapiens). Put plainly: Displacement of [3H]NMS from recombinant human mAChR1 expressed in Flp-In-CHO cells after 1 hr by microbeta scintillation counting analysis. In kind it is cell-based.
Assay [12] concerns the target T4, C-X-C chemokine receptor type 3 (Homo sapiens) (UniProt P49682).
T4 sequence (whole entry): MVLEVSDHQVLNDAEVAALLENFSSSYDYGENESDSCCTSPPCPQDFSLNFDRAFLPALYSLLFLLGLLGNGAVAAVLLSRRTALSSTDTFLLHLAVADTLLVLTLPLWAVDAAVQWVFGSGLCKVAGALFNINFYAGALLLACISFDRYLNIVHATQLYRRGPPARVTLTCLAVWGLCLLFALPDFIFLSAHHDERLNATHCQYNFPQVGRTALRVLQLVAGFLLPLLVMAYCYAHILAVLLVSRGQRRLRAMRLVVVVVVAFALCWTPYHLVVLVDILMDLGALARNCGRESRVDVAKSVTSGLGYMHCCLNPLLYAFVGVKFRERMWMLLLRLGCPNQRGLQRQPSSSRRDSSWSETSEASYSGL
Put plainly: Displacement of [3H]RAMX3 from CXCR3 (unknown origin) expressed in HEK cells after 1 hrs by microbeta scintillation counter. In kind it is cell-based.

Assay [13] has as its target T5, Muscarinic acetylcholine receptor M2 (Homo sapiens, UniProt P08172).
T5 sequence (P08172 whole entry): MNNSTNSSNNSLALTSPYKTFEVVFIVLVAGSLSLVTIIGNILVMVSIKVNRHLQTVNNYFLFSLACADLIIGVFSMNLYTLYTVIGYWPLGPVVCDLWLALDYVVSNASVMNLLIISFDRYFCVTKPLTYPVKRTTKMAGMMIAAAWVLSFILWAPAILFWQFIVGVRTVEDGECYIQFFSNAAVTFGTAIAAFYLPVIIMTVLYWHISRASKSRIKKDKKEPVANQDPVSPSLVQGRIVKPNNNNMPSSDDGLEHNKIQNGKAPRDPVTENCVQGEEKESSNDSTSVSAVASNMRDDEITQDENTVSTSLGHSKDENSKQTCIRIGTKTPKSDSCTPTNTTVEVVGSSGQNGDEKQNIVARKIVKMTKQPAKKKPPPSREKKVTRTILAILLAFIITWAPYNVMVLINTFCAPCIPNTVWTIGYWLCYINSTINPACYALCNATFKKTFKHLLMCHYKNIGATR
Put plainly: Displacement of [3H]NMS from wild-type human mAChR2 expressed in Flp-In-CHO cell membranes in presence of mAChR2 agonist acetylcholine after 90 mins by scintillation counting analysis.

The target in assay [14] is T5, Muscarinic acetylcholine receptor M2. Kind of assay: Displacement of [3H]NMS from wild-type human mAChR2 expressed in Flp-in-CHO cell membranes in presence of mAChR2 agonist xanomeline after 90 mins by scintillation counting analysis.
In assay [15] the target is D(2) dopamine receptor (Homo sapiens) (UniProt P14416). The source holds these as a separate data set.
Chain of D(2) dopamine receptor (Homo sapiens) (P14416 whole entry): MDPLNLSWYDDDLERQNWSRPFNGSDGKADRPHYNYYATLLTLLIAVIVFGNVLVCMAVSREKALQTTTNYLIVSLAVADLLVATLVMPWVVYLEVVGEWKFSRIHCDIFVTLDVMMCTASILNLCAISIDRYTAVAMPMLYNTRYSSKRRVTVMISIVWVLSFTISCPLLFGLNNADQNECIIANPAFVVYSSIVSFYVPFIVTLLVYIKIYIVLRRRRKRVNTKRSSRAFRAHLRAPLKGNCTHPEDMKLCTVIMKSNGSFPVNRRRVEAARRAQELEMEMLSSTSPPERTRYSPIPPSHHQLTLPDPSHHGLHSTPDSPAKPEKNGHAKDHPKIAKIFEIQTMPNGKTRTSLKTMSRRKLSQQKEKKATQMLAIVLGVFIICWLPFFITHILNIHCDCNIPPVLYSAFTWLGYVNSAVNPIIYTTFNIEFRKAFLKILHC
Description: Agonist activity at Rluc8-tagged D2 long receptor (unknown origin) expressed in Flp-In-CHO cells co-expressing YFP-tagged beta-arrestin2 assessed as change in transduction coefficient by measuring beta-arrestin2 recruitment measured after 5 mins by BRET assay
Assay [16] has the same target. The source holds these as a separate data set.
Description: Agonist activity at D2 long receptor (unknown origin) expressed in Flp-In-CHO cells co-expressing Rluc8-tagged Galphai1 assessed as change in transduction coefficient by measuring Galphai1 activation after 5 mins in presence of coelenterazine by BRET assay

Chain of Metabotropic glutamate receptor 5 (Homo sapiens) (P41594 21-1212 limits assumed): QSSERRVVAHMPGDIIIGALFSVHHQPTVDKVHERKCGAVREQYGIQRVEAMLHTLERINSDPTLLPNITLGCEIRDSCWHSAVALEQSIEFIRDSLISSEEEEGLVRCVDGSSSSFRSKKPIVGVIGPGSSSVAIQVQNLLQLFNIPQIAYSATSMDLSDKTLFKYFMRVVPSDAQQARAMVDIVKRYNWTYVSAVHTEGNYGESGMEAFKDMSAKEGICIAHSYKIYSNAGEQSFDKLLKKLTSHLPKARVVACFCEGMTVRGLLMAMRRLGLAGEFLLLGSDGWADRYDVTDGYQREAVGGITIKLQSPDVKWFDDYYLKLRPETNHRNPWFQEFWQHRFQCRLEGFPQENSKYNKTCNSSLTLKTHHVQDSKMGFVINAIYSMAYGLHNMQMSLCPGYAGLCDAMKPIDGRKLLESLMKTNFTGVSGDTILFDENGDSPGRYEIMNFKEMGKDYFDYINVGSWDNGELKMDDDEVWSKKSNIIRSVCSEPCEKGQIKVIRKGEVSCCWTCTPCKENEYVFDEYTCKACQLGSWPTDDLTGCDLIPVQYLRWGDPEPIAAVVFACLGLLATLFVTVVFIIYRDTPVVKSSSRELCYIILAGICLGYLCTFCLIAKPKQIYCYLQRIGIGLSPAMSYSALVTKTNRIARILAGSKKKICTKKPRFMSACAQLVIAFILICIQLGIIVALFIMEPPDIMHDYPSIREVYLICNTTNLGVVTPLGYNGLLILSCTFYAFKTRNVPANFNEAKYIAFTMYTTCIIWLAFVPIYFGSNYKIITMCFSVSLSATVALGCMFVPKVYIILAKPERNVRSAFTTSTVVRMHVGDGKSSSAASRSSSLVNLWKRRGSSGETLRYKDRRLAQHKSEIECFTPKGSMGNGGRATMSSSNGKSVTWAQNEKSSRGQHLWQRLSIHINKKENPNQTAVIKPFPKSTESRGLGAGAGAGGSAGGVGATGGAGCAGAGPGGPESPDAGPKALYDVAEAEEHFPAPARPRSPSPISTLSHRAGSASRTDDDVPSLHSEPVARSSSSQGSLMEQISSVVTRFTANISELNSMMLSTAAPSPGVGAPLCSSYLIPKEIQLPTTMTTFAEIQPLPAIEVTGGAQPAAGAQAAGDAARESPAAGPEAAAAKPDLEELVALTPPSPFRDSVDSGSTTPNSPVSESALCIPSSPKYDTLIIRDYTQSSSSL

One may read the pKb as −log10 of the Kb, conventionally taken in molar units. As for `C#CCOc1ccc(C(=O)c2ccc(OCCOc3cccc(C#Cc4csc(C)n4)c3)cc2)cc1`, in [1], the negative logarithm of the Kb (pKb) is 6.1.
As to `CC(C)(/C=C(\C#N)C(=O)N1CCC[C@@H]1Cn1nc(-c2ccc(Oc3ccccc3)cc2F)c2c(N)ncnc21)NC1COC1`, the Ratio in assay [2] came out at 0.4. Further, in assay [3], the TIME is 167 h.
As to `CN(C)C(=O)N[C@H]1CC[C@H](CCN2CCN(c3cccc(Cl)c3Cl)CC2)CC1`, the deltalog(Tau/KA) in assay [4] was 0.3; in assay [5], 0.7; in assay [6] it was 0.2; in assay [7], -1.1. The T1/2 in assay [8] was 1.4 min.
Usually EC50 stands for the midpoint of the concentration-response curve. On to `O=C(CO)[C@@H](O)[C@H](O)[C@H](O)CO` [FRUCTOSE], for which the EC50 in assay [9] was 12.6 µM.
As to `O=C(O)c1cn(Cc2ccc(N=C=S)cc2)c2ccccc2c1=O`, the pKb in assay [10] was found to be 5.2.
Regarding `COc1ccc(Cn2cc(C(=O)O)c(=O)c3ccccc32)cc1`, the pKb in assay [11] is 4.8.
Still for that read-out and setting: with `Cn1cc(-c2ccc(Cc3ccc4ncn([C@H]5CCCC[C@@H]5O)c(=O)c4c3)cn2)cn1` the figure was 4.3; with `Cc1c(Cc2ccc(-c3cnn(C)c3)nc2)cc2c(=O)n([C@H]3CCCC[C@@H]3O)cnc2c1C`, 5.1.
For `CCOc1cc(CC(=O)N(Cc2ccc(OC)c(B(O)O)c2)C(C)c2nc3ncccc3c(=O)n2-c2ccc(C)cc2)ccc1F` (stereo not given), the pKb in assay [12] turned out to be 6.1.
Regarding `Cc1cc2ncn([C@H]3CCCC[C@@H]3O)c(=O)c2cc1Cc1ccc(-c2cnn(C)c2)nc1`, in [11], the pKb turned out to be 5.2.
By Ki is commonly meant the dissociation constant of the complex between target and ligand, obtained from inhibition or displacement. Take `COc1nc2sc(C(=O)NC3CC3)c(N)c2c(C)c1Cl`: the values for the Ki in assay [13] and in assay [14] were 3.16 µM and 0.158 µM, respectively.
Turning to `O=c1[nH]c2cccc(N3CCN(Cc4cccc(-c5ccccc5)c4)CC3)c2o1`, the deltalog(Tau/KA) in assay [4] is -0.3; in assay [15], -0.6; in [5] it was 0.3; in [16] it was 1.4; in assay [6], -0.2; in assay [7] it was -1.2. Besides, the T1/2 in assay [8] amounted to 86 min.
For the compound `Cn1cc(-c2ccc(Cc3cc4c(=O)n([C@H]5CCCC[C@@H]5O)cnc4c4ccccc34)cn2)cn1`, the pKb in assay [11] turned out to be 5.8.
